From patent US10912815B2, “Inhibitors of mitochondrial fission and methods of use thereof” (The Board of Trustees of the Leland Stanford Junior …, priority 2011, dated 2021)
Entries after “also recorded” stand apart in the source; their conditions may differ. No end group written: not given here.

Assays:
Drp1 = experiment: Confocal imaging of Drp1 localization on mitochondria in SH-SY5Y cells; type: cell-based, human; settings: SH-SY5Y exposed to MPP+ or CCCP, FIG. 3G
Protocol: (§1) The effects of MPP+ or CCCP on translocation of Drp1 in the absence and presence of P110 was measured using confocal microscopy. Cultured SH-SY5Y cells in black 96-well plate were treated with Drp1 peptide inhibitor P110 (1 μM) 30 min prior to treatment of MPP+ (2 mM) or CCCP (5 uM). After 2 hrs of treatment, cells were stained with MITOSOX™ (red mitochondrial superoxide indicator) (5 uM, for 10 min, mitochondrial ROS) or TMRM (0.5 uM, for 20 min, MMP) at 37° C. For total ROS detection, cells were treated with MPP+ or CCCP for 24 hrs. ROS level was measured by CM-H2DCFDA (1 μM for 30 min, Invitrogen). Cells were washed with PBS for three times. The detection was performed in a fluorescence microplate reader (Tecan, Infinite M1000) according to manufacturer's instructions. Measurements were normalized to the cell number counted using Hoechst staining.
The data, quantitated by Image J software, is provided in a histogram FIG. 3G.

SH-SY5Y cells [1] = experiment: Mitochondrial morphology/fragmentation in SH-SY5Y cells (TOM20 staining); type: cell-based, human; settings: for percentage of cells with fragmented mitochondria: P110 1 μM 30 min, FIG. 5
Protocol: To determine effects of P110 on mitochondrial morphology in response to mitochondrial stresses, an immuno-staining approach was used. In one experiment, SH-SY5Y neuronal cells were treated with Drp1 peptides or Drp1 siRNA followed by treatment of MPP+. The cells were then stained with TOM20 and Hoechst stain.
In another experiment, cultured SH-SY5Y cells were treated with P110 (1 μM) for 30 min followed by incubation with MPP+(2 mM, 4 hrs) or CCCP (5 uM, 30 min). The cells were then stained with anti-Tom 20 antibody (green) and Hoechst stain (scale bar 0.5 μm). Mitochondrial morphology was analyzed using 63× oil lens. The data were analyzed and are presented as a histogram in which the percentage of cells with fragmented mitochondria relative to the total number of cells is presented as the mean±S.E. of 3 independent experiments. At least 200 cells per group were counted.

SH-SY5Y cells [2] = experiment: Total ROS production in SH-SY5Y cells (CM-H2DCFDA); type: cell-based, human; settings: MPP+ and CCCP 24 hrs, FIG. 6E
Protocol: as §1
Mitochondrial membrane potential was also determined using TMRM (tetramethylrhodamine methylester). […] Fluoresence detection was performed using black 96-well plates in a fluorescence microplate reader at 560 nm excitation and 690 nm emission and potential was assessed by quenching of the fluorescent signal. […] A kinetic change of mitochondrial superoxide production was determined by using MITOSOX™ (red mitochondrial superoxide indicator). […]

[3] = tested on: Primary rat dopaminergic neurons; experiment: Mitochondrial fragmentation in primary dopaminergic neurons exposed to MPP+; type: cell-based; settings: P110 1 μM, MPP+ 1 μM, 15 hrs, FIG. 10B
Protocol: Primary rat dopaminergic neurons (cultured for 6 days) were treated without or with P110 (1 μM) followed by treatment with or without MPP+(1 μM). Two hrs following MPP+ treatment, the cells were stained with MITOSOX™ red (to measure mitochondrial superoxide production) and anti-TH antibody (a marker of dopaminergic neurons). Fifteen hrs after MPP+ treatment, cells were stained with anti-TH antibody and anti-Tom20 antibody (a marker of mitochondria).

RRRQRRKKRGYGGDLLPRGS (RRRQRRKKRGYGGDLLPRGS-NH2) [P110, TAT47-57 carrier, GG linker, Drp1 region 110 (GTPase domain) peptide DLLPRGS; C-terminus C(O)-NH2]
co-localization of Drp1 with mitochondria (Drp1): greatly reduced
percentage of cells with fragmented mitochondria (SH-SY5Y cells [1]; then CCCP 5 uM 30 min, 63% without P110): 23%
percentage of cells with fragmented mitochondria (SH-SY5Y cells [1]; then MPP+ 2 mM 4 hrs, 50% without P110): 14%
reduction of mitochondrial fragmentation in cells exposed to MPP+ (SH-SY5Y cells [1]; SH-SY5Y, MPP+, p<0.01, n=3, FIG. 4A, 4B): 70%
mitochondrial morphology/network in control (non-stressed) cells (SH-SY5Y cells [1]; SH-SY5Y, no stressor): minimal effects; also recorded: no effect; also recorded: did not observe dramatic difference
total ROS produced by the mitochondrial stressors (SH-SY5Y cells [2]): greatly reduced
mitochondrial fragmentation [3]: reduced mitochondrial fragmentation
